Reference: ChEMBL document CHEMBL5393454, “Compounds inhibitors of mettl3” (2022)

Target: N6-adenosine-methyltransferase catalytic subunit (Homo sapiens, UniProt Q86U44)
Assay: Inhibition of full length His-tagged METTL3 (unknown origin) co-expressed with full length FLAG-tagged METTL14 in baculovirus expression system preincubated using 5'P-uacacucgaucuggacuaaagcugcuc-3' as substrate and SAM as cosubstrate pre-incubated for 10 mins followed by addition of substrates and measured after 60 mins by RapidFire mass spectrometry (RF/MS) analysis

Chain of N6-adenosine-methyltransferase catalytic subunit (Q86U44 whole entry): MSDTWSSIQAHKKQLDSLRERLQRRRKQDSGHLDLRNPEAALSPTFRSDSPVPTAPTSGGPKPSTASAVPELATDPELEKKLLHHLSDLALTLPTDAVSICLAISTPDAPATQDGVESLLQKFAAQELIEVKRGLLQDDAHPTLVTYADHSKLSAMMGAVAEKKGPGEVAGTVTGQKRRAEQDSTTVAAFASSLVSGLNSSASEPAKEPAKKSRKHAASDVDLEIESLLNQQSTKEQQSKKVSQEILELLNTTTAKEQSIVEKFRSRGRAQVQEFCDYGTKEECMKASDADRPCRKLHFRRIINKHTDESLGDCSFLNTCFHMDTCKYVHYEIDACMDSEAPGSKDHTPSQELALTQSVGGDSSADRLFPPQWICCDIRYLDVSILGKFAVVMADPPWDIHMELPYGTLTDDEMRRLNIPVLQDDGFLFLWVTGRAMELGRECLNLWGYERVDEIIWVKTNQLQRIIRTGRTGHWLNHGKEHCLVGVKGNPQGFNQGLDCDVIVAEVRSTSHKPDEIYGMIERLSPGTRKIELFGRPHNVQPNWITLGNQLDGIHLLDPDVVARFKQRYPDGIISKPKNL

| Compound | IC50 [nM] |
| --- | --- |
| Nc1ncnc2c1c(Br)cn2[C@@H]1O[C@H](/C=C/CCCNCC2CC(F)(F)C2)[C@@H](O)[C@H]1O | 22.7 |
| Nc1ncnc2c1c(Br)cn2[C@@H]1C[C@H](c2ccc3cc(CNCC45CC(F)(C4)C5)[nH]c3c2)[C@@H](O)[C@H]1O | < 6 |
| Nc1ncnc2c1c(Br)cn2[C@@H]1O[C@H](/C=C/CCCNCC23CC(F)(C2)C3)[C@@H](O)[C@H]1O | < 6 |
